Data: patent US20250223295A1, “SOLID STATE FORMS OF RUCAPARIB TOSYLATE” (ASSIA CHEMICAL INDUSTRIES LTD., priority 2022, published 2025)
“Also recorded” adds a separate entry of the source.

Tests used:
Format in all cases: physicochemical
[1] = Storage stability at different relative humidities (XRPD); details: for XRPD analysis results: 7 days
Procedure: (§1) A sample is powdered in a mortar and pestle and applied directly on a silicon plate holder. The X-ray powder diffraction pattern was measured with Philips X'Pert PRO X-ray powder diffractometer, equipped with Cu irradiation source=1.54184 Å (Ångström), X'Celerator (2.022° 2θ) detector. Scanning parameters: angle range: 3-40 deg., step size 0.0167, time per step 37 s, continuous scan.
Samples of Rucaparib tosylate form X (about 200 mg each) were subjected to conditions of different relative humidities at ambient temperature. XRPD analysis was performed on the samples after 7 days.
A sample of Rucaparib tosylate form X was subjected to 100% relative humidity at 25° C.

[2] = Grinding experiments (XRPD); details: for XRPD analysis results: 3 minutes
Procedure: as §1
Samples of Rucaparib tosylate form X were subjected to strong grinding, and to solvent drop grinding in water, ethanol (96%) and 2-propanol. Grinding was carried out on the samples alone, or in the presence of ethanol, water and 2-propanol. In these experiments, about 20-30 mg of the sample were placed in a mortar and ground with a pestle for 3 minutes. The solvent, when used, as added to the crystalline material before grinding, in a volume of 10 microlitres.

[3] = Exposure to solvent vapour (XRPD); details: 25° C., 7 days
Procedure: as §1
Samples of Rucaparib tosylate form X (20-40 mg) were put in small vials and exposed to solvent vapours (2.5 ml each of ethanol, 96%, water and 2-propanol) at 25° C.

Thermal stability (XRPD) = details: Heating 100° C., 30 minutes
Procedure: as §1
A sample of Rucaparib tosylate form X was subjected to heating up to 100° C. for 30 minutes.

[4] = Stability to compression (XRPD); details: for XRPD analysis results: after 1-5 minutes
Procedure: as §1
Samples of Rucaparib tosylate form X were subjected to pressures of 1000 kg and 2000 kg. XRPD analysis was performed on the samples after 1-5 minutes.

For “Rucaparib Tosylate [Rucaparib tosylate form X]”, the XRPD analysis results ([1]; 20% relative humidity, ambient temperature, triplicate) was “Form X”, the “Stability after exposure to high and low relative humidity” value ([1]; 20-100% relative humidity, ambient temperature, at least 7 days) was “stable” and the XRPD analysis results ([1]; 40% relative humidity, ambient temperature, triplicate) was “Form X”. For the same substance, the XRPD analysis results ([1]; 60% relative humidity, ambient temperature, triplicate) was “Form X”, the XRPD analysis results ([1]; 80% relative humidity, ambient temperature, triplicate) was “Form X” and the “XRPD analysis, polymorphic change” value ([1]; 100% relative humidity, 25° C., 30 days, triplicate) was “no polymorphic change”. The XRPD analysis results ([1]; 100% relative humidity, ambient temperature, triplicate) was “Form X”, the XRPD analysis results ([2]; Solvent-drop grinding (2-propanol), 10 microlitres) was “Form X” and the XRPD analysis results ([2]; Solvent-drop grinding (ethanol), 10 microlitres) was “Form X”. The XRPD analysis results ([2]; Solvent-drop grinding (water), 10 microlitres) was “Form X”, the XRPD analysis results ([2]; Strong grinding) was “Form X” and the “XRPD analysis after the grinding experiment” value ([2]; all grinding conditions: alone or with ethanol, water, 2-propanol) was “no change in the starting material”. The XRPD analysis results ([3]; 2-propanol vapour) was “Form X”, the XRPD analysis results ([3]; Ethanol, 96% vapour) was “Form X” and the XRPD analysis results ([3]; Water vapour) was “Form X”. For the same substance, the “Result (XRPD analysis)” value (Thermal stability (XRPD)) was “no change in the starting material; also recorded: Form X”, the XRPD analysis results ([4]; Pressure 1000 kg) was “No change” and the XRPD analysis results ([4]; Pressure 2000 kg) was “No change”. The “Stability under high pressure conditions” value ([4]; pressures of 1000 kg and 2000 kg) was “stable”.
